Measurements: PubChem BioAssay AID977614 (Broad Institute, 2014)
Calls of active or inactive are those of the source.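 The calls were made as follows: active = parasite count per well reduced by over 3 SD from the mean, with host cell number above 80% of untreated; inactive = the rest.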

Tested on: L. donovani amastigotes in THP-1 macrophages, DAPI imaging, 72 h
Assay: antileishmanial activity in infected macrophages – imaging, THP-1 host macrophages, single concentration (AID 977614);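 also: signal is the parasite per host cell ratio from DAPI stained kinetoplasts and nuclei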

SMILES | AC50
O=C(CC(F)(F)F)N1C[C@H]2[C@@H](c3ccccc31)[C@H](CO)N2Cc1cccnc1 | > 10 µM (inactive)
C[C@@H]1CN([C@@H](C)CO)C(=O)CCCn2nncc2CO[C@H]1CN(C)CC1CCCCC1 | > 10 µM (inactive)
O=C(CC(F)(F)F)N1C[C@H]2[C@@H](c3ccccc31)[C@@H](CO)N2C(=O)c1ccncc1 | > 10 µM (inactive)
C[C@@H]1CN([C@@H](C)CO)C(=O)CCCn2nncc2CO[C@@H]1CN(C)S(=O)(=O)c1cn(C)cn1 | > 10 µM (inactive)
C[C@H]1CN([C@@H](C)CO)C(=O)CCCn2nncc2CO[C@@H]1CN(C)S(=O)(=O)c1cn(C)cn1 | > 10 µM (inactive)
C[C@H]1CN([C@@H](C)CO)C(=O)CCCn2nncc2CO[C@@H]1CN(C)S(=O)(=O)c1ccc2c(c1)OCCCO2 | > 10 µM (inactive)
C[C@@H]1CN([C@H](C)CO)C(=O)CCCn2nncc2CO[C@H]1CN(C)C(=O)Nc1ccc2c(c1)OCCO2 | > 10 µM (inactive)
Cc1cccc(S(=O)(=O)N2C[C@@H]3[C@H](c4ccccc42)[C@H](CO)N3CC2CCCC2)c1 | > 10 µM (inactive)
CN(C[C@H]1[C@@H](c2ccc(C3=CCCC3)cc2)[C@@H](CO)N1CCC(F)(F)F)S(C)(=O)=O | > 10 µM (inactive)
C[C@@H]1CN([C@H](C)CO)C(=O)CCCn2cc(nn2)CO[C@H]1CN(C)C(=O)Oc1ccc2ccccc2c1 | > 10 µM (inactive)
C[C@H]1CN([C@@H](C)CO)C(=O)CCCn2nncc2CO[C@H]1CN(C)S(=O)(=O)c1ccccc1C#N | > 10 µM (inactive)
CCC(=O)NC[C@H]1N[C@H](CO)[C@@H]1c1ccc(-c2cccnc2)cc1 | > 10 µM (inactive)
O=C(CN1CCOCC1)NC[C@@H]1N[C@@H](CO)[C@@H]1c1ccc(-c2ccccc2)cc1 | > 10 µM (inactive)
C[C@@H]1CN([C@@H](C)CO)C(=O)CCCn2nncc2CO[C@H]1CN(C)C(=O)c1cc(-c2ccccc2)on1 | > 10 µM (inactive)
CCN(C[C@@H]1[C@H](c2ccccc2)[C@H](CO)N1C(=O)COC)S(C)(=O)=O | > 10 µM (inactive)
CCC(=O)N1[C@H](CO)[C@@H]2c3ccccc3N(C(=O)Nc3ccc(Cl)cc3)C[C@@H]21 | > 10 µM (inactive)
O=C(c1ccncc1)N1C[C@H]2[C@@H](c3ccccc31)[C@@H](CO)N2Cc1ccccc1F | > 10 µM (inactive)
CCS(=O)(=O)N1[C@H](CO)[C@H](c2ccccc2)[C@H]1CN(C(C)=O)C1CCCC1 | > 10 µM (inactive)
C[C@@H]1CN([C@@H](C)CO)C(=O)CCCn2nncc2CO[C@@H]1CN(C)Cc1ccc2cccnc2c1 | > 10 µM (inactive)
CCCNC(=O)N1[C@H](CNC(=O)c2cccc(F)c2)[C@H](c2ccccc2)[C@@H]1CO | > 10 µM (inactive)
Cc1ccc(S(=O)(=O)N2C[C@H]3[C@@H](c4ccccc42)[C@H](CO)N3Cc2cccnc2)cc1 | > 10 µM (inactive)
C[C@H]1CN([C@@H](C)CO)C(=O)CCCn2nncc2CO[C@@H]1CN(C)S(=O)(=O)c1ccc(Oc2ccccc2)nc1 | > 10 µM (inactive)
Cc1cccc(S(=O)(=O)N2C[C@@H]3[C@H](c4ccccc42)[C@H](CO)N3Cc2ccc3c(c2)OCO3)c1 | > 10 µM (inactive)
CCN(C[C@@H]1[C@@H](c2ccc(-c3cccnc3)cc2)[C@H](CO)N1C(C)=O)C(C)=O | > 10 µM (inactive)
CCNC[C@H]1[C@@H](c2ccccc2)[C@@H](CO)N1C(=O)Cc1ccccn1 | > 10 µM (inactive)
CN1C[C@H]2[C@@H](c3ccccc31)[C@H](CO)N2S(=O)(=O)c1ccccc1 | > 10 µM (inactive)

SMILES | AC50
O=C(c1ccccn1)N1C[C@H]2[C@@H](c3ccccc31)[C@@H](CO)N2C(=O)Nc1ccccc1Cl | > 10 µM (inactive)
C[C@H]1CN([C@@H](C)CO)C(=O)CCCn2nncc2CO[C@H]1CN(C)Cc1ccccc1C(=O)O | > 10 µM (inactive)
Cc1noc(C)c1S(=O)(=O)N(C)C[C@H]1OCc2cnnn2CCCC(=O)N([C@H](C)CO)C[C@H]1C | > 10 µM (inactive)
O=C(Nc1cccc(Cl)c1)N1C[C@@H]2[C@H](c3ccccc31)[C@H](CO)N2Cc1cccnc1 | > 10 µM (inactive)
COc1ccc(CN(C)C[C@H]2OCc3cnnn3CCCC(=O)N([C@@H](C)CO)C[C@@H]2C)cc1 | > 10 µM (inactive)
O=S(=O)(NC[C@@H]1[C@H](c2ccccc2)[C@H](CO)N1CC1CC1)c1ccccc1 | > 10 µM (inactive)
O=C(CN1CCOCC1)N1[C@@H](CO)[C@@H]2c3ccccc3NC[C@@H]21 | > 10 µM (inactive)
COc1ccc(CN2[C@@H]3CN(C(=O)NC(C)C)c4ccccc4[C@@H]3[C@@H]2CO)cc1 | > 10 µM (inactive)
CN(C[C@H]1[C@@H](c2ccccc2)[C@@H](CO)N1C(=O)C1CCC1)C(=O)c1ccncc1 | > 10 µM (inactive)
CN1[C@@H](CO)[C@@H]2c3ccccc3N(C(=O)Nc3cc(F)ccc3F)C[C@@H]21 | > 10 µM (inactive)
CCCNC(=O)N1C[C@H]2[C@@H](c3ccccc31)[C@H](CO)N2C(=O)CN1CCOCC1 | > 10 µM (inactive)
C[C@H]1CN([C@@H](C)CO)C(=O)CCCn2nncc2CO[C@H]1CN(C)Cc1ccc2cccnc2c1 | > 10 µM (inactive)
O=C(c1ccc2c(c1)OCO2)N1C[C@H]2[C@@H](c3ccccc31)[C@H](CO)N2Cc1cccnc1 | > 10 µM (inactive)
O=C(C1CCOCC1)N1C[C@H]2[C@@H](c3ccccc31)[C@@H](CO)N2C(=O)Nc1ccccc1F | > 10 µM (inactive)
CC(=O)N1[C@H](CO)[C@@H](c2ccccc2)[C@H]1CN(CC1CCC1)C(=O)CN(C)C | > 10 µM (inactive)
CC(=O)N1[C@@H](CO)[C@H](c2ccccc2)[C@@H]1CNC(=O)CN1CCOCC1 | > 10 µM (inactive)
COc1cccc(C(=O)N2C[C@@H]3[C@H](c4ccccc42)[C@@H](CO)N3C(=O)c2cccc(F)c2)c1 | > 10 µM (inactive)
OC[C@@H]1[C@@H]2c3ccccc3NC[C@@H]2N1Cc1cccnc1 | > 10 µM (inactive)
CC(C)N(C[C@@H]1N[C@@H](CO)[C@@H]1c1ccccc1)S(=O)(=O)c1ccccc1 | > 10 µM (inactive)
C[C@@H]1CN([C@@H](C)CO)C(=O)CCCn2cc(nn2)CO[C@@H]1CN(C)S(=O)(=O)c1cn(C)cn1 | > 10 µM (inactive)
Cc1noc(C)c1NC(=O)N(C)C[C@@H]1OCc2cnnn2CCCC(=O)N([C@H](C)CO)C[C@H]1C | > 10 µM (inactive)
O=C(Nc1cccc(Cl)c1)N1C[C@H]2[C@@H](c3ccccc31)[C@H](CO)N2Cc1cccnc1 | > 10 µM (inactive)
C[C@H](CO)N1C[C@H](C)[C@@H](CN(C)S(=O)(=O)c2ccccc2C#N)OCc2cnnn2CCCC1=O | > 10 µM (inactive)
O=C(CC(F)(F)F)N1C[C@H]2[C@@H](c3ccccc31)[C@@H](CO)N2C(=O)C1CCCCC1 | > 10 µM (inactive)
CC(=O)NC[C@H]1[C@@H](c2ccc(C#CC(C)C)cc2)[C@@H](CO)N1Cc1ccccn1 | > 10 µM (inactive)
CCCNC(=O)N1C[C@@H]2[C@H](c3ccccc31)[C@@H](CO)N2C(=O)Nc1ccccc1F | > 10 µM (inactive)

SMILES | AC50
C[C@H]1CN([C@@H](C)CO)C(=O)CCCn2nncc2CO[C@H]1CN(C)C(=O)c1ccc(N2CCN(C)CC2)cc1 | > 10 µM (inactive)
COc1ccc(CN(C)C[C@H]2OCc3cnnn3CCCC(=O)N([C@H](C)CO)C[C@H]2C)cc1 | > 10 µM (inactive)
O=C(C1CCCCC1)N1[C@H](CO)[C@H]2c3ccccc3NC[C@H]21 | > 10 µM (inactive)
CCCNC(=O)N1C[C@@H]2[C@H](c3ccccc31)[C@@H](CO)N2Cc1cccc(OC)c1 | > 10 µM (inactive)
CC(C)NC(=O)N1[C@@H]2CNc3ccccc3[C@@H]2[C@@H]1CO | > 10 µM (inactive)
O=C(CC1CC1)N1[C@H](CO)[C@@H]2c3ccccc3N(S(=O)(=O)c3ccccc3F)C[C@@H]21 | > 10 µM (inactive)
CCN(C[C@H]1[C@H](c2ccccc2)[C@@H](CO)N1S(C)(=O)=O)C(=O)C1CCCC1 | > 10 µM (inactive)
O=C(CC(F)(F)F)N1C[C@@H]2[C@H](c3ccccc31)[C@H](CO)N2C(=O)C1CCCCC1 | > 10 µM (inactive)
O=C(Nc1ccc(Cl)cc1)N1C[C@@H]2[C@H](c3ccccc31)[C@@H](CO)N2CC1CCCCC1 | > 10 µM (inactive)
C[C@@H]1CN([C@@H](C)CO)C(=O)CCCn2nncc2CO[C@@H]1CN(C)C(=O)Oc1cccc2ccccc12 | > 10 µM (inactive)
C[C@H](CO)N1C[C@H](C)[C@H](CN(C)C(=O)Nc2cccc3ccccc23)OCc2cn(nn2)CCCC1=O | > 10 µM (inactive)
O=C(NC[C@H]1[C@H](c2ccccc2)[C@H](CO)N1C(=O)C1CCC1)NC1CCCC1 | > 10 µM (inactive)
O=C(Nc1ccccc1F)N1C[C@@H]2[C@H](c3ccccc31)[C@H](CO)N2C(=O)Cc1cccnc1 | > 10 µM (inactive)
C[C@H]1CN([C@@H](C)CO)C(=O)CCCn2nncc2CO[C@H]1CN(C)C(=O)Oc1cccc2ccccc12 | > 10 µM (inactive)
CNC[C@H]1OCc2cnnn2CCCC(=O)N([C@@H](C)CO)C[C@@H]1C | > 10 µM (inactive)
O=S(=O)(c1ccccc1)N1C[C@H]2[C@@H](c3ccccc31)[C@@H](CO)N2Cc1ccccn1 | > 10 µM (inactive)
C[C@@H]1CN([C@@H](C)CO)C(=O)CCCn2nncc2CO[C@@H]1CN(C)CC1CCCCC1 | > 10 µM (inactive)
CC(=O)N1[C@H](CNC(=O)C2CC2)[C@@H](c2ccc(-c3ccccc3)cc2)[C@@H]1CO | > 10 µM (inactive)
COc1ccc(CN(C)C[C@H]2OCc3cnnn3CCCC(=O)N([C@H](C)CO)C[C@@H]2C)cc1 | > 10 µM (inactive)
O=C(Nc1ccccc1Cl)N1C[C@H]2[C@@H](c3ccccc31)[C@H](CO)N2C(=O)c1cccnc1 | > 10 µM (inactive)
CCCNC(=O)N1[C@H](CO)[C@H]2c3ccccc3N(C(=O)Nc3cccc(Cl)c3)C[C@H]21 | > 10 µM (inactive)
C[C@H](CO)N1C[C@H](C)[C@@H](CN(C)C(=O)Nc2cccc(C(F)(F)F)c2)OCc2cn(nn2)CCCC1=O | > 10 µM (inactive)
C[C@H](CO)N1C[C@H](C)[C@@H](CN(C)C(=O)CCC(F)(F)F)OCc2cnnn2CCCC1=O | > 10 µM (inactive)
CC(C)NC(=O)N1[C@H](CO)[C@H]2c3ccccc3NC[C@H]21 | > 10 µM (inactive)
